System: carrageenan-induced paw edema
Experiment: Carrageenan paw edema in mice
Format: in vivo
Conditions: oral, doses less than 30 mg/kg, 4 hours after carrageenan
Description: The activity of representative compounds on carrageenan paw edema in mice was evaluated according to the procedures disclosed by Winter et al., Proc Soc Exp Biol Med 111, 544-547, 1962, which is incorporated herein by reference in its entirety. To induce edema in the paw, test compounds were administered orally one hour before intraplantar injection of the right hind paw with carrageenan (50 μL of 1% suspension). Hind paw edema, as a measure of inflammation, was recorded using a plethysmometer (Ugo Basile, Italy) 4 hours after λ-carrageenan administration.

Q: With Cc1cc(O)cc2c1[C@]1(C)CC[C@H]3C(C)(C)CCC[C@]3(C)[C@H]1CO2 [Compound No. 6, (1R,10R,11S,16S)-1,3,11,15,15-pentamethyl-8-oxatetracyclo[8.8.0.0^2,7.0^11,16]octadeca-2,4,6-trien-5-ol] as the molecule, how does the “inhibition of carrageenan-induced paw edema” value read?
A: 24%
